Data taken from ChEMBL document CHEMBL1926644, “Novel substrate-based inhibitors of human glutamate carboxypeptidase II with enhanced lipophilicity” (J Med Chem, 2011).

Key:
[1] = target: Glutamate carboxypeptidase 2 (Homo sapiens, UniProt Q04609); assay: Inhibition of glutamate carboxypeptidase 2 in human LNCAP cells assessed as glutamate formation using NAAG as substrate after 60 mins by fluorometric analysis; assay type: cell-based
Homo sapiens = organism: Homo sapiens; assay: Ratio of Km for wild type recombinant human glutamate carboxypeptidase 2 to Km for recombinant human glutamate carboxypeptidase 2 K699S mutant

Chain of Glutamate carboxypeptidase 2 (Q04609 whole entry): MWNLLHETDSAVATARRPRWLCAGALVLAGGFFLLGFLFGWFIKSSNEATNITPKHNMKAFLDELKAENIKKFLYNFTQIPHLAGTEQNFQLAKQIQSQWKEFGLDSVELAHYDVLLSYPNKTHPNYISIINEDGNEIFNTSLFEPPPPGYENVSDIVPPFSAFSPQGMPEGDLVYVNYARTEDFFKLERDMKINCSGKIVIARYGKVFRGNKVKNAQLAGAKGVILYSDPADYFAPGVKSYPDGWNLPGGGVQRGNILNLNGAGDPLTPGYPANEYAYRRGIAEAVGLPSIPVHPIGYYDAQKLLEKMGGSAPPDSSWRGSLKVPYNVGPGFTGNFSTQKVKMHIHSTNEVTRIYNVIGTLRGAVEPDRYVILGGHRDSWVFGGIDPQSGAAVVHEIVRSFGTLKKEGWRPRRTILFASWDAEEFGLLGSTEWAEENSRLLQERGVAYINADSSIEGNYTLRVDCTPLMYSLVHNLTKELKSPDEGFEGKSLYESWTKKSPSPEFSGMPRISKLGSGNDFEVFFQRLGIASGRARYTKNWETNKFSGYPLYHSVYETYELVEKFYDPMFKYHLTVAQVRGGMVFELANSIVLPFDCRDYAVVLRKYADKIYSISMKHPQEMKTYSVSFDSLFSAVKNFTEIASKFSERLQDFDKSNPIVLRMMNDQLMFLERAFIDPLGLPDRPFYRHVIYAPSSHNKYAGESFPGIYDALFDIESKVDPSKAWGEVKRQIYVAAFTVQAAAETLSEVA

SMILES	Ki [1]	Ratio (Homo sapiens)
O=C(O)CNC(=O)N[C@@H](CCCCNC(=O)c1ccc(I)cc1)C(=O)O	4390 nM	
CCCCCC[C@H](NC(=O)N[C@@H](CCCCNC(=O)c1ccc(I)cc1)C(=O)O)C(=O)O	72 nM	
CCCCCCCC(NC(=O)[C@H](CC(=O)O)NC(C)=O)C(=O)O (mixture of isomers)		3
C[C@H](NC(=O)N[C@@H](CCCCNC(=O)c1ccc(I)cc1)C(=O)O)C(=O)O	325 nM	
CCC[C@H](NC(=O)N[C@@H](CCCCNC(=O)c1ccc(I)cc1)C(=O)O)C(=O)O	145 nM	
CC[C@H](NC(=O)N[C@@H](CCCCNC(=O)c1ccc(I)cc1)C(=O)O)C(=O)O	121 nM	

The remaining lines, values ahead:

Ki [1]	Ratio (Homo sapiens)	SMILES
29 nM		CCCCCCC[C@H](NC(=O)N[C@@H](CCCCNC(=O)c1ccc(I)cc1)C(=O)O)C(=O)O
56 nM		CCCC[C@H](NC(=O)N[C@@H](CCCCNC(=O)c1ccc(I)cc1)C(=O)O)C(=O)O
20 nM		CCCCC[C@H](NC(=O)N[C@@H](CCCCNC(=O)c1ccc(I)cc1)C(=O)O)C(=O)O
